Experimental data: patent publication US20260262643A1, “HERBICIDAL BENZOXAZINES” (FMC CORPORATION, priority 2022, published 2026)
Like-named read-outs stand apart in the source and are kept apart here.

Key:
rice = test: Test B flooded paddy test; format: in vivo, Oryza sativa; settings: 250 g ai/ha, Flood, 13 days, 0 to 100 scale (0 no effect, 100 complete control); for plant injury at 250 g/ha: Oryza sativa, 312 h, read-out: Plant response rating, Rice
How it was run: (§1)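 Two-leaf plants, 3 cm flood, in-water application, 13-day greenhouse hold, visual 0–100 rating vs untreated checks.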

oat, wild [1] = test: Test A preemergence; format: in vivo, Avena fatua; settings: for pest or weed control at 125 g/ha / pest or weed control at 500 g/ha: Avena fatua, pre-emergence, 240 h, read-out: Plant response rating, Oat, Wild; for pest or weed control at 125 g/ha: 125 g ai/ha; for pest or weed control at 500 g/ha: 0 to 100 scale (0 no effect, 100 complete control), 10 days
How it was run: (§2)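 Plants were grown in loam and sand and treated preemergence or postemergence (one- to two-leaf stage, 2–10 cm) with compound in solvent plus surfactant. Response was scored against untreated controls after 10 greenhouse days, where 0 means no effect and 100 complete control.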

soybean [2] = test: Test A postemergence; format: in vivo, Glycine max; settings: postemergence, 10 days, 0 to 100 scale (0 no effect, 100 complete control); for plant injury at 125 g/ha / plant injury at 500 g/ha: Glycine max, post-emergence, 240 h; for plant injury at 125 g/ha: 125 g ai/ha, read-out: Soybean plant response rating; for plant injury at 500 g/ha: read-out: Plant response rating, Soybean
How it was run: as §2

ducksalad = test: Test B flooded paddy test; format: in vivo, Heteranthera limosa; settings: 250 g ai/ha, Flood, 13 days, 0 to 100 scale (0 no effect, 100 complete control); for pest or weed control at 250 g/ha: Heteranthera limosa, 312 h, read-out: Plant response rating, Ducksalad
How it was run: as §1

blackgrass = test: Test A preemergence; format: in vivo, Alopecurus myosuroides; settings: for Plant response rating, Blackgrass / pest or weed control at 125 g/ha: 0 to 100 scale; for pest or weed control at 125 g/ha / pest or weed control at 500 g/ha: Alopecurus myosuroides, pre-emergence, 240 h, read-out: Plant response rating, Blackgrass; for pest or weed control at 500 g/ha: 0 to 100 scale (0 no effect, 100 complete control), 10 days
How it was run: as §2

oat, wild [3] = test: Test A postemergence; format: in vivo, Avena fatua; settings: postemergence, 10 days; for pest or weed control at 500 g/ha: read-out: Plant response rating, Oat, Wild
How it was run: as §2

galium = test: Test A postemergence; format: in vivo, Galium aparine; settings: postemergence, 10 days, 0 to 100 scale (0 no effect, 100 complete control); for pest or weed control at 125 g/ha / pest or weed control at 500 g/ha: Galium, post-emergence, 240 h; for pest or weed control at 125 g/ha: 125 g ai/ha
How it was run: as §2

sedge, umbrella = test: Test B flooded paddy test; format: in vivo, Cyperus difformis; settings: 250 g ai/ha, Flood, 13 days, 0 to 100 scale (0 no effect, 100 complete control); for pest or weed control at 250 g/ha: Cyperus difformis, 312 h, read-out: Plant response rating, Sedge, Umbrella
How it was run: as §1

ryegrass, Italian = test: Test A postemergence; format: in vivo, Lolium multiflorum; settings: postemergence, 10 days, 0 to 100 scale (0 no effect, 100 complete control); for pest or weed control at 125 g/ha / pest or weed control at 500 g/ha: Lolium multiflorum, post-emergence, 240 h; for pest or weed control at 125 g/ha: 125 g ai/ha, read-out: Ryegrass, Italian plant response rating; for pest or weed control at 500 g/ha: read-out: Plant response rating, Ryegrass, Italian
How it was run: as §2

wheat = test: Test A postemergence; format: in vivo, Triticum aestivum; settings: postemergence, 10 days, 0 to 100 scale (0 no effect, 100 complete control); for plant injury at 125 g/ha / plant injury at 500 g/ha: Triticum aestivum, post-emergence, 240 h; for plant injury at 125 g/ha: 125 g ai/ha, read-out: Wheat plant response rating; for plant injury at 500 g/ha: read-out: Plant response rating, Wheat
How it was run: as §2

kochia [4] = test: Test A preemergence; format: in vivo, Bassia scoparia; settings: for Plant response rating, Kochia / pest or weed control at 125 g/ha: 0 to 100 scale; for pest or weed control at 125 g/ha / pest or weed control at 500 g/ha: Bassia scoparia, pre-emergence, 240 h, read-out: Plant response rating, Kochia; for pest or weed control at 500 g/ha: 0 to 100 scale (0 no effect, 100 complete control), 10 days
How it was run: as §2

soybean [5] = test: Test A preemergence; format: in vivo, Glycine max; settings: for plant injury at 125 g/ha / plant injury at 500 g/ha: Glycine max, pre-emergence, 240 h, read-out: Plant response rating, Soybean; for plant injury at 125 g/ha: 125 g ai/ha; for plant injury at 500 g/ha: 0 to 100 scale (0 no effect, 100 complete control), 10 days
How it was run: as §2

ragweed = test: Test A postemergence; format: in vivo, Ambrosia artemisiifolia; settings: postemergence, 10 days, 0 to 100 scale (0 no effect, 100 complete control); for pest or weed control at 125 g/ha / pest or weed control at 500 g/ha: Ambrosia artemisiifolia, post-emergence, 240 h; for pest or weed control at 125 g/ha: 125 g ai/ha, read-out: Ragweed plant response rating; for pest or weed control at 500 g/ha: read-out: Plant response rating, Ragweed
How it was run: as §2

kochia [6] = test: Test A postemergence; format: in vivo, Bassia scoparia; settings: postemergence, 10 days, 0 to 100 scale (0 no effect, 100 complete control); for pest or weed control at 125 g/ha / pest or weed control at 500 g/ha: Bassia scoparia, post-emergence, 240 h; for pest or weed control at 125 g/ha: 125 g ai/ha
How it was run: as §2

pigweed, palmer = test: Test A preemergence; format: in vivo, Amaranthus palmeri; settings: for pest or weed control at 125 g/ha / pest or weed control at 500 g/ha: Amaranthus palmeri, pre-emergence, 240 h, read-out: Plant response rating, Pigweed, Palmer; for pest or weed control at 125 g/ha: 125 g ai/ha; for pest or weed control at 500 g/ha: 0 to 100 scale (0 no effect, 100 complete control), 10 days
How it was run: as §2

[7] = 500 g ai/ha, visual injury after 10 days, 0 to 100 scale, 0 is no effect, 100 is complete control
[8] = 500 g ai/ha, visual injury after 10 days, 0 is no effect, 100 is complete control
[9] = read-out: Galium plant response rating
[10] = read-out: Kochia plant response rating
[11] = visual injury after 10 days, 0 to 100 scale, 0 is no effect, 100 is complete control
[12] = 125 g ai/ha, visual injury after 10 days, 0 is no effect, 100 is complete control
[13] = Avena fatua, post-emergence, 240 h, 500 g ai/ha, visual injury, 0 to 100 scale (0 no effect, 100 complete control)
[14] = 500 g ai/ha, visual injury, read-out: Plant response rating, Galium
[15] = 500 g ai/ha, visual injury, read-out: Plant response rating, Kochia

For `CC(C)c1ncn(-c2cc(C(=O)N3C[C@H](C)Oc4c(Cl)cccc43)c3ccccc3c2)n1` [Compound 146], the “Plant response rating, Rice” value (rice) was 0, the “Plant response rating, Oat, Wild” value (oat, wild [1]; [7]) was 20 and the pest or weed control at 125 g/ha (oat, wild [1]; 0 to 100 scale) was 0%. For the same molecule, the “Plant response rating, Soybean” value (soybean [2]; 500 g ai/ha, visual injury) was 100, the plant injury at 125 g/ha (soybean [2]) was 50% and the “Plant response rating, Ducksalad” value (ducksalad) was 0. For the same molecule, the “Plant response rating, Blackgrass” value (blackgrass; 125 g ai/ha) was 70, the “Plant response rating, Blackgrass” value (blackgrass; [8]) was 90 and the “Oat, Wild plant response rating” value (oat, wild [3]; 125 g ai/ha, 0 to 100 scale, 0 no effect, 100 complete control) was 0. The “Plant response rating, Oat, Wild” value (oat, wild [3]; 500 g ai/ha, visual injury, 0 to 100 scale (0 no effect, 100 complete control)) was 10, the “Plant response rating, Galium” value (galium; 500 g ai/ha, visual injury) was 80 and the pest or weed control at 125 g/ha (galium; [9]) was 50%. The “Plant response rating, Sedge, Umbrella” value (sedge, umbrella) was 0, the “Plant response rating, Ryegrass, Italian” value (ryegrass, Italian; 500 g ai/ha, visual injury) was 40 and the pest or weed control at 125 g/ha (ryegrass, Italian) was 20%. The “Plant response rating, Wheat” value (wheat; 500 g ai/ha, visual injury) was 30, the plant injury at 125 g/ha (wheat) was 20% and the “Plant response rating, Kochia” value (kochia [4]; 125 g ai/ha) was 10. For the same molecule, the “Plant response rating, Kochia” value (kochia [4]; [8]) was 30, the “Plant response rating, Soybean” value (soybean [5]; [7]) was 20 and the plant injury at 125 g/ha (soybean [5]; 0 to 100 scale) was 0%. The “Plant response rating, Ragweed” value (ragweed; 500 g ai/ha, visual injury) was 0, the pest or weed control at 125 g/ha (ragweed) was 0% and the “Plant response rating, Kochia” value (kochia [6]; 500 g ai/ha, visual injury) was 90. The pest or weed control at 125 g/ha (kochia [6]; [10]) was 80%, the “Plant response rating, Pigweed, Palmer” value (pigweed, palmer; [7]) was 100 and the pest or weed control at 125 g/ha (pigweed, palmer; 0 to 100 scale) was 90%.
In the case of `Cc1ncn(-c2ccc(C)c(C(=O)N3C[C@H](C)Oc4c(Cl)cccc43)c2)n1` (single isomer, unassigned) [Compound 74], the plant injury at 250 g/ha (rice) is reported as 20%, the pest or weed control at 125 g/ha (oat, wild [1]; [11]) is reported as 60% and the pest or weed control at 500 g/ha (oat, wild [1]; 500 g ai/ha) is reported as 90%. The plant injury at 500 g/ha (soybean [2]; 500 g ai/ha, visual injury) was 100%, the pest or weed control at 250 g/ha (ducksalad) was 60% and the pest or weed control at 125 g/ha (blackgrass; [12]) was 70%. It also gave a pest or weed control at 500 g/ha (blackgrass; 500 g ai/ha) of 90%, a pest or weed control at 500 g/ha (oat, wild [3]; [13]) of 60% and a pest or weed control at 125 g/ha (galium; visual injury, read-out: Plant response rating, Galium) of 100%. The pest or weed control at 500 g/ha (galium; [14]) was 100%, the pest or weed control at 250 g/ha (sedge, umbrella) was 95% and the pest or weed control at 500 g/ha (ryegrass, Italian; 500 g ai/ha, visual injury) was 100%. For the same molecule, the plant injury at 500 g/ha (wheat; 500 g ai/ha, visual injury) was 80%, the pest or weed control at 125 g/ha (kochia [4]; [12]) was 40% and the pest or weed control at 500 g/ha (kochia [4]; 500 g ai/ha) was 100%. It also gave a plant injury at 125 g/ha (soybean [5]; [11]) of 70%, a plant injury at 500 g/ha (soybean [5]; 500 g ai/ha) of 100% and a pest or weed control at 500 g/ha (ragweed; 500 g ai/ha, visual injury) of 50%. The pest or weed control at 125 g/ha (kochia [6]; visual injury, read-out: Plant response rating, Kochia) was 70%, the pest or weed control at 500 g/ha (kochia [6]; [15]) was 90% and the pest or weed control at 125 g/ha (pigweed, palmer; [11]) was 90%. It also gave a pest or weed control at 500 g/ha (pigweed, palmer; 500 g ai/ha) of 100%.
Work on `C[C@H]1CN(C(=O)c2cccc(-n3cnc(C4CCC4)n3)c2)c2cccc(Cl)c2O1` [Compound 93, [(2S)-8-Chloro-2,3-dihydro-2-methyl-4H-1,4-benzoxazin-4-yl][3-(3-cyclobutyl-1H-1,2,4-triazol-1-yl)phenyl]methanone] yielded a plant injury at 250 g/ha (rice) of 0%, a pest or weed control at 125 g/ha (oat, wild [1]; [11]) of 20% and a pest or weed control at 500 g/ha (oat, wild [1]; 500 g ai/ha) of 90%. The plant injury at 125 g/ha (soybean [2]) was 100%, the plant injury at 500 g/ha (soybean [2]; 500 g ai/ha, visual injury) was 100% and the pest or weed control at 250 g/ha (ducksalad) was 0%. The pest or weed control at 125 g/ha (blackgrass; [12]) was 80%, the pest or weed control at 500 g/ha (blackgrass; 500 g ai/ha) was 90% and the pest or weed control at 125 g/ha (oat, wild [3]; Avena fatua, post-emergence, 240 h, 125 g ai/ha, 0 to 100 scale (0 no effect, 100 complete control), read-out: Oat, Wild plant response rating) was 20%. It also gave a pest or weed control at 500 g/ha (oat, wild [3]; [13]) of 70%, a pest or weed control at 125 g/ha (galium; [9]) of 100% and a pest or weed control at 500 g/ha (galium; [14]) of 100%. For the same molecule, the pest or weed control at 250 g/ha (sedge, umbrella) was 0%, the pest or weed control at 125 g/ha (ryegrass, Italian) was 30% and the pest or weed control at 500 g/ha (ryegrass, Italian; 500 g ai/ha, visual injury) was 90%. It also gave a plant injury at 125 g/ha (wheat) of 20%, a plant injury at 500 g/ha (wheat; 500 g ai/ha, visual injury) of 20% and a pest or weed control at 125 g/ha (kochia [4]; [12]) of 50%. The pest or weed control at 500 g/ha (kochia [4]; 500 g ai/ha) was 100%, the plant injury at 125 g/ha (soybean [5]; [11]) was 30% and the plant injury at 500 g/ha (soybean [5]; 500 g ai/ha) was 30%. The pest or weed control at 125 g/ha (ragweed) was 50%, the pest or weed control at 500 g/ha (ragweed; 500 g ai/ha, visual injury) was 50% and the pest or weed control at 125 g/ha (kochia [6]; [10]) was 80%. For the same molecule, the pest or weed control at 500 g/ha (kochia [6]; [15]) was 90%, the pest or weed control at 125 g/ha (pigweed, palmer; [11]) was 90% and the pest or weed control at 500 g/ha (pigweed, palmer; 500 g ai/ha) was 100%.
